Laboratory results taken from ChEMBL document CHEMBL5291721, “A preclinical secondary pharmacology resource illuminates target-adverse drug reaction associations of marketed drugs” (Nat Commun, 2023).

Key:
Adenosine receptor A1 = molecular target: T1, Adenosine receptor A1 (Homo sapiens, UniProt P30542)
T1 sequence (P30542 whole entry): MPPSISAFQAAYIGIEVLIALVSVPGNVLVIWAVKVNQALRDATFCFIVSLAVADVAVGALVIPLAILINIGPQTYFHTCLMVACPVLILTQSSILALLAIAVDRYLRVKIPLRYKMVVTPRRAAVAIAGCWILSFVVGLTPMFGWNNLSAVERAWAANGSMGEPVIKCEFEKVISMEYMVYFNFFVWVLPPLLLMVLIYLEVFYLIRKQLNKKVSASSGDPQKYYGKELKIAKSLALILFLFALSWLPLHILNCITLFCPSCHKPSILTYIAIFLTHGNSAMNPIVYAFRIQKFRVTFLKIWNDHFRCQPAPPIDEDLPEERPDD

[1] = molecular target: 5-hydroxytryptamine receptor 2A (Homo sapiens, UniProt P28223); type: functional, cell-based
[2] = molecular target: Beta-1 adrenergic receptor (Homo sapiens, UniProt P08588); type: functional
Adenosine receptor A2a = Adenosine receptor A2a (Homo sapiens, UniProt P29274)
[3] = molecular target: T2, Equilibrative nucleoside transporter 1 (Homo sapiens, UniProt Q99808)
T2 sequence (Q99808 whole entry): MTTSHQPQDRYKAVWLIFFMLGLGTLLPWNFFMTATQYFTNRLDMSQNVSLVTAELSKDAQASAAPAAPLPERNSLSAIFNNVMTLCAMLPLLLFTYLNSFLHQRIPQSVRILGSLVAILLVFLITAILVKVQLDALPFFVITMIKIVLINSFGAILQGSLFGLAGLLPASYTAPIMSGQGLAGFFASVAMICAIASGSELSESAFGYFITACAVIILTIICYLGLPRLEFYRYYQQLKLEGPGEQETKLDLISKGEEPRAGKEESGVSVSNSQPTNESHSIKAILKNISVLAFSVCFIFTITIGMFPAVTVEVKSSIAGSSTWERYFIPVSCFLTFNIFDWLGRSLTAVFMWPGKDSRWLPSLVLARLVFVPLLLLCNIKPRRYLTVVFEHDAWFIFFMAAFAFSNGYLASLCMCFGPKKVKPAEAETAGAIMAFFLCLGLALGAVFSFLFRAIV

Endothelin-1 receptor = molecular target: T3, Endothelin-1 receptor (Homo sapiens, UniProt P25101)
T3 sequence (P25101 whole entry): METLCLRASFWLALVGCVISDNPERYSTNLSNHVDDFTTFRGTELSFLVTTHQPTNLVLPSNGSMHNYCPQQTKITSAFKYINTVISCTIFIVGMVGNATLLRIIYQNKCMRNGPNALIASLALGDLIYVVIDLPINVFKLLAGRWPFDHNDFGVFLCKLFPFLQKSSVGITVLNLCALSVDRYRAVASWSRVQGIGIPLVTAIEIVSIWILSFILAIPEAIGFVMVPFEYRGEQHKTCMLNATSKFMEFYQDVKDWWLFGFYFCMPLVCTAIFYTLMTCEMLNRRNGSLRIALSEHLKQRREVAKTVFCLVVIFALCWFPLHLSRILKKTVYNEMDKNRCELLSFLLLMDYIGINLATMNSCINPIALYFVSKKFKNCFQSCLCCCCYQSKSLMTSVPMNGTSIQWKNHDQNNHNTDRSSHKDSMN

B2 bradykinin receptor = molecular target: T4, B2 bradykinin receptor (Homo sapiens, UniProt P30411)
T4 sequence (P30411 whole entry): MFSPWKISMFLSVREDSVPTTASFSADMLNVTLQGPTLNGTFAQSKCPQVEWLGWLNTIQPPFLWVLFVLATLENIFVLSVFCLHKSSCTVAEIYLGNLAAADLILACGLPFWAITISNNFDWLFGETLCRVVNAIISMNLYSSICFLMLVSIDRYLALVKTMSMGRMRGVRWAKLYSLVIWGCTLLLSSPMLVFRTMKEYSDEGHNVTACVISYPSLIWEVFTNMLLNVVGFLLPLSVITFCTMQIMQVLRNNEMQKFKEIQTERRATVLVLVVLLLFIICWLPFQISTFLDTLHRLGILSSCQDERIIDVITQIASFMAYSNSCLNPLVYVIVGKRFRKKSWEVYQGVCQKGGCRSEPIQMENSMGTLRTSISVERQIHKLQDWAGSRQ

Vasopressin V1a receptor = Vasopressin V1a receptor (Homo sapiens, UniProt P37288)
[4] = molecular target: T5, 5-hydroxytryptamine receptor 3A (Homo sapiens, UniProt P46098); type: functional
T5 sequence (P46098 whole entry): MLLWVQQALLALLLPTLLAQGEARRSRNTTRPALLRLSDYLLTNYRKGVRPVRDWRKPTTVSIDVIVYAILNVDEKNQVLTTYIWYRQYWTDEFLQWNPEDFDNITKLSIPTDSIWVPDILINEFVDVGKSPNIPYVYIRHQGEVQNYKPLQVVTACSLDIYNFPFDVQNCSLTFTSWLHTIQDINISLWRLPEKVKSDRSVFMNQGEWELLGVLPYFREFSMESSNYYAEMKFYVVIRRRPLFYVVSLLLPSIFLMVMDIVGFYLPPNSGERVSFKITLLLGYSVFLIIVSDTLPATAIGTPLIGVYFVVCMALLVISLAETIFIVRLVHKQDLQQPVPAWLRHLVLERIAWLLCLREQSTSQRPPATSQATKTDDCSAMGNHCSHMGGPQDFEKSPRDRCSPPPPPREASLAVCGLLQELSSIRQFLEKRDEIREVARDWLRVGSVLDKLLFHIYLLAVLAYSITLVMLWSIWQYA
Further: assay procedure not described here.

Adenosine receptor A2a, sequence (P29274 whole entry): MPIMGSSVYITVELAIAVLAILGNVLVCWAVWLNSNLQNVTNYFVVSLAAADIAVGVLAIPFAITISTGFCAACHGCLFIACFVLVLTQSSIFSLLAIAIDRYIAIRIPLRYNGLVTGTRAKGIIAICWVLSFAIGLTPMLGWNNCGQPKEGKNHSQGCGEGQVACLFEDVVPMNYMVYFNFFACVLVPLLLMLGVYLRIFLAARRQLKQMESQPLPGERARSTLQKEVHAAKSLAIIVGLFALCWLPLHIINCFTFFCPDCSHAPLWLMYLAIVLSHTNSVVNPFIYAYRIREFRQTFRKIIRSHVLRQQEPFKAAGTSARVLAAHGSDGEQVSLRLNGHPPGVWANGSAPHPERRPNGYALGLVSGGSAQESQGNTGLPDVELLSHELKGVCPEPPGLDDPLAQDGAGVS
Beta-1 adrenergic receptor, sequence (P08588 whole entry): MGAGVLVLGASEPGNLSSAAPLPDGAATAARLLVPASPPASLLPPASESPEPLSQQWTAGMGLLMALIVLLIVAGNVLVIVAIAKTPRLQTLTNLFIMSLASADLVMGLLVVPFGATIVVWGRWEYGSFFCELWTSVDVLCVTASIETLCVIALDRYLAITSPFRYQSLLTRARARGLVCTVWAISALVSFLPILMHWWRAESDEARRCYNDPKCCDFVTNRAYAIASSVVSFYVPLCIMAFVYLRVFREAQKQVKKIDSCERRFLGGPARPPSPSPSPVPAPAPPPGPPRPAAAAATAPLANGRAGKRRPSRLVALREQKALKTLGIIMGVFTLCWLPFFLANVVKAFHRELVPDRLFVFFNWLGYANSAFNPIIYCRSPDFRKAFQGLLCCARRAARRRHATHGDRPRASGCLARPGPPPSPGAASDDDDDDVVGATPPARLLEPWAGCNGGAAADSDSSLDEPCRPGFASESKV
Vasopressin V1a receptor, sequence (P37288 whole entry): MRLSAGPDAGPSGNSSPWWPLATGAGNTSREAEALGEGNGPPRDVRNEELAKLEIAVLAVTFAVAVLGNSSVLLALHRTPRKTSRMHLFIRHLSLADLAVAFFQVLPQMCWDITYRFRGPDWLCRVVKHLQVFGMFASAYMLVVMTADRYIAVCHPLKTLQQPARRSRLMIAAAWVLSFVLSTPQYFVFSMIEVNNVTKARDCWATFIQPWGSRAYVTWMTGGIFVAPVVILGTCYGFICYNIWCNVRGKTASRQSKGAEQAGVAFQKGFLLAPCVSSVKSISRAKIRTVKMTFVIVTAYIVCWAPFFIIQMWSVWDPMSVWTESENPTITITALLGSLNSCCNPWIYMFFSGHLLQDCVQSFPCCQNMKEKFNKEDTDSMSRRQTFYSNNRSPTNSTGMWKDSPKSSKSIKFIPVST
5-hydroxytryptamine receptor 2A, sequence (P28223 whole entry): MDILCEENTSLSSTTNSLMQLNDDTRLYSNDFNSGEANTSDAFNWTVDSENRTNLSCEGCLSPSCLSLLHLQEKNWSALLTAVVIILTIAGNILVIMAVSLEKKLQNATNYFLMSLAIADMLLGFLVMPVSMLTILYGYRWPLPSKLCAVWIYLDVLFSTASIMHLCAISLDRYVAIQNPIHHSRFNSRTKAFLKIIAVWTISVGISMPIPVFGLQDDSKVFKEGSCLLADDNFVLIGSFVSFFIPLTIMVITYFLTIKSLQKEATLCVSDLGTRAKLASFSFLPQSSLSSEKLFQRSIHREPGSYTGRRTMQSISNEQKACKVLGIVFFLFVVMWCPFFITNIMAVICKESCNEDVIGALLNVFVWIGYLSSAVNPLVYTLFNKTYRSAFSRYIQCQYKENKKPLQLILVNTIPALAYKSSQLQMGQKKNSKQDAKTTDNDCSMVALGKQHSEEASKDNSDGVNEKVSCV

| SMILES | AC50 (Adenosine receptor A1) [µM] | AC50 [1] [µM] | AC50 [2] [µM] | AC50 (Adenosine receptor A2a) [µM] | AC50 [3] [µM] | AC50 (Endothelin-1 receptor) [µM] | AC50 (B2 bradykinin receptor) [µM] | AC50 (Vasopressin V1a receptor) [µM] | AC50 [4] [µM] |
| --- | --- | --- | --- | --- | --- | --- | --- | --- | --- |
| CC(Oc1c(Cl)cccc1Cl)C1=NCCN1 (stereo unspecified) [LOFEXIDINE] | > 30 | > 30 | > 30 | > 30 | > 30 | > 30 | > 30 | > 30 | > 30 |
| CC(C(=O)O)c1ccc(N2Cc3ccccc3C2=O)cc1 (stereo unspecified) [INDOPROFEN] | > 30 | > 30 | > 30 | > 30 | > 30 | > 30 | > 30 | > 30 | > 30 |
| CC1(C)O[C@@H]2C[C@H]3[C@@H]4CCC5=CC(=O)C=C[C@]5(C)[C@H]4[C@@H](O)C[C@]3(C)[C@]2(C(=O)CO)O1 [DESONIDE] | > 10 | > 10 | > 10 | > 10 | > 10 |  | > 10 | > 10 | > 30 |
| CCCC(C)C1(CC)C(=O)NC(=O)NC1=O (stereo unspecified) [PENTOBARBITAL] | > 10 | > 10 | > 10 | > 10 | > 10 |  | > 10 | > 10 | > 30 |
| O=C(O)C[C@H](O)C[C@H](O)/C=C/c1c(C2CC2)nc2ccccc2c1-c1ccc(F)cc1 [PITAVASTATIN] | > 10 | > 30 | > 30 | > 30 | > 10 |  | > 10 | > 10 | > 30 |
| COC(=O)C1=C(C)NC(C)=C(C(=O)OC(C)(C)CN(C)CCC(c2ccccc2)c2ccccc2)C1c1cccc([N+](=O)[O-])c1 (stereo unspecified) [LERCANIDIPINE] | > 30 | > 30 | > 30 | > 30 | > 30 |  | > 30 | > 30 | > 30 |
| C[C@H](CSC(=O)c1ccccc1)C(=O)N1C[C@@H](Sc2ccccc2)C[C@H]1C(=O)O [ZOFENOPRIL] | > 10 | > 10 | > 10 | > 10 | > 10 |  | > 10 | > 10 | > 30 |
| C#C[C@]1(O)CC[C@H]2[C@@H]3CCc4cc(OC5CCCC5)ccc4[C@H]3CC[C@@]21C [QUINESTROL] | > 10 | > 10 | > 10 | > 10 | > 10 |  | > 10 | > 10 | > 30 |
| C[C@]1(O)CC[C@H]2[C@@H]3CCC4=CC(=O)CC[C@]4(C)[C@@]3(F)[C@@H](O)C[C@@]21C [FLUOXYMESTERONE] | > 10 | > 10 | > 10 | > 10 | > 10 |  | > 10 | > 10 | > 30 |
| C[C@H](N)[C@H](O)c1cccc(O)c1 [METARAMINOL] | > 10 | 35 | 14.3 | > 10 | > 10 |  | > 10 | > 10 | > 30 |
| CCc1c(Cl)c(O)c(Cl)c(O)c1C(=O)O[C@H]1[C@H](O)[C@H](OC)[C@H](OC/C2=C\C=C\C[C@H](O)/C(C)=C/[C@H](CC)[C@@H](O[C@@H]3OC(C)(C)[C@@H](OC(=O)C(C)C)[C@H](O)[C@@H]3O)/C(C)=C/C(C)=C/C[C@@H]([C@@H](C)O)OC2=O)O[C@@H]1C [FIDAXOMICIN] | > 30 | > 30 | > 10 | > 30 | 3.6 | > 30 | > 30 | > 10 | > 10 |
| Nc1nc(/C(=C/CC(=O)O)C(=O)N[C@@H]2C(=O)N3C(C(=O)O)=CCS[C@H]23)cs1 [CEFTIBUTEN] | > 30 | > 30 | > 30 | > 30 | > 30 |  | > 30 | > 30 | > 30 |
| CO[C@@H]1[C@@H](O[C@@H]2O[C@H](C)[C@@H](O[C@H]3C[C@@](C)(O)[C@@H](OC(=O)CC(C)C)[C@H](C)O3)[C@H](N(C)C)[C@H]2O)[C@@H](CC=O)C[C@@H](C)[C@@H](O)/C=C/C=C/C[C@@H](C)OC(=O)C[C@H]1OC(C)=O [JOSAMYCIN] | > 10 | > 10 | > 10 | > 10 | > 10 |  | > 10 | > 10 | > 30 |
| C=CCC1(C(C)CC)C(=O)NC(=O)NC1=O (stereo unspecified) [TALBUTAL] | > 10 | > 10 | > 10 | > 10 | > 10 |  | > 10 | > 10 | > 30 |
| CC(C)=CCC/C(C)=C/C=C/C(C)=C/C=C/C(C)=C/C=C/C=C(C)/C=C/C=C(C)/C=C/C=C(\C)CCC=C(C)C [LYCOPENE] | > 30 | > 30 | > 30 | > 30 | > 30 | > 30 | > 30 | > 30 | > 30 |
| Cc1cc(O)c(C(=O)N[C@@H](C(=O)N[C@@H]2C(=O)N3C(C(=O)O)=C(CSc4nnnn4C)CS[C@H]23)c2ccc(O)cc2)cn1 [CEFPIRAMIDE] | > 30 | > 30 | > 30 | > 30 | > 30 |  | > 30 | > 30 | > 30 |
| C=CCC1(CC(C)C)C(=O)NC(=O)NC1=O [BUTALBITAL] | > 10 | > 10 | > 10 | > 10 | > 10 |  | > 10 | > 10 | > 30 |
| Cc1cccc(C(C)c2cnc[nH]2)c1C (stereo unspecified) [MEDETOMIDINE] | > 30 | > 30 | > 30 | > 30 | > 30 |  | > 30 | > 30 | > 30 |
| CCCC(=O)O[C@]1(C(=O)CO)CC[C@H]2[C@@H]3CCC4=CC(=O)CC[C@]4(C)[C@H]3[C@@H](O)C[C@@]21C [HYDROCORTISONE BUTYRATE] | > 10 | > 10 | > 10 | > 10 | > 10 |  | > 10 | > 10 | > 30 |
